According to patent US5189157A, “Antibacterial cephalosporin compounds” (Hoffmann La Roche Inc., priority 1988, dated 1993):
Structures can show the parent of a compound that is named as a salt.

Legend:
Assay type in all cases: cell-based
P. aeruginosa B = assay: In Vitro MIC, Broth Dilution Method; details: Pseudomonas aeruginosa
P. aeruginosa 8780 = assay: In Vitro MIC, Broth Dilution Method; details: Pseudomonas aeruginosa, 8780, read-out: In Vitro MIC
P. aeruginosa K77/61 = assay: In Vitro MIC, Broth Dilution Method; details: Pseudomonas aeruginosa, K77/61, read-out: In Vitro MIC
Excerpt: (§1) The in vitro activity of the compounds of the present invention as measured by the Minimum Inhibitory Concentration in micrograms/ml utilizing the Agar Well Diffusion Method, Agar Dilution Method or Broth Dilution Method against a variety of Gram-positive and Gram-negative organisms, is as follows:
(§2) In Vitro MIC (μg/ml) Broth Dilution Method

P. aeruginosa 1973E = assay: In Vitro MIC, Broth Dilution Method; details: Pseudomonas aeruginosa
Excerpt: as §1, §2

P. aeruginosa 5700 = assay: In Vitro MIC, Broth Dilution Method; details: Pseudomonas aeruginosa
Excerpt: as §1, §2

P. aeruginosa 765 = assay: In Vitro MIC, Broth Dilution Method; details: Pseudomonas aeruginosa
Excerpt: as §1, §2

P. aeruginosa 8710 = assay: In Vitro MIC, Broth Dilution Method; details: Pseudomonas aeruginosa
Excerpt: as §1, §2

S. aureus ATCC 25923 = assay: In Vitro MIC, Agar Dilution Method; details: Staphylococcus aureus, ATCC25923
Excerpt: as §1
(§3) In Vitro MIC (μg/ml) Agar Dilution Method

S. aureus 1059B = assay: In Vitro MIC, Agar Dilution Method; details: Staphylococcus aureus
Excerpt: as §1, §3

K. pneumoniae A = assay: In Vitro MIC, Agar Dilution Method; details: Klebsiella pneumoniae
Excerpt: as §1, §3

E. cloaca P99 = assay: In Vitro MIC, Agar Dilution Method
Excerpt: as §1, §3

P. aeruginosa 185/H = assay: In Vitro MIC, Agar Dilution Method; details: Pseudomonas aeruginosa
Excerpt: as §1, §3

P. mirabilis 190 = assay: In Vitro MIC, Agar Dilution Method; details: Proteus mirabilis
Excerpt: as §1, §3

E. cloacae 9570A = assay: In Vitro MIC, Agar Dilution Method; details: Enterobacter cloacae
Excerpt: as §1, §3

P. aeruginosa Stone 130 [1] = assay: In Vitro MIC, Agar Dilution Method; details: Pseudomonas aeruginosa, STONE130
Excerpt: as §1, §3

E. coli 48 = assay: In Vitro MIC, Agar Dilution Method; details: Escherichia coli
Excerpt: as §1, §3

P. aeruginosa 130 = assay: In Vitro MIC, Agar Dilution Method; details: Pseudomonas aeruginosa
Excerpt: as §1, §3

S. aureus Smith = assay: In Vitro MIC, Agar Dilution Method; details: Staphylococcus aureus
Excerpt: as §1, §3

P. aureus Giorgid = assay: In Vitro MIC, Agar Dilution Method
Excerpt: as §1, §3

S. marscescens SM = assay: In Vitro MIC, Agar Dilution Method
Excerpt: as §1, §3

P. aeruginosa 6148B = assay: In Vitro MIC, Broth Dilution Method; details: Pseudomonas aeruginosa
P. aeruginosa ATCC 27853 = assay: In Vitro MIC, Broth Dilution Method; details: Pseudomonas aeruginosa, ATCC27853
P. aeruginosa Stone 130 [2] = assay: In Vitro MIC, Broth Dilution Method; details: Pseudomonas aeruginosa, STONE130
P. aeruginosa K77/WT = assay: In Vitro MIC, Broth Dilution Method; details: Pseudomonas aeruginosa
Excerpt: as §1, §2

P. aeruginosa 503-56 = assay: In Vitro MIC, Broth Dilution Method; details: Pseudomonas aeruginosa, 50356
Excerpt: as §1, §2

CC(C)(O/N=C(\C(=O)N[C@@H]1C(=O)N2C(C(=O)O)=C(COC(=O)c3ccc(O)c(O)c3)CS[C@H]12)c1csc(N)n1)C(=O)O [Compound C, [6R-[6 alpha,7 beta(Z)]]-7-[[(2-amino-4-thiazolyl)(1-carboxy-1-methylethoxy)-imino]acetyl]amino]-3-[[(3,4-dihydroxybenzoyl)oxy]methyl]-8-oxo-5-thia-1-azabicyclo[4.2.0]oct-2-ene-2-carboxylic acid disodium salt]
MIC (P. aeruginosa B): 0.125 µg/mL | MIC (P. aeruginosa 8780): > 0.008 µg/mL | MIC (P. aeruginosa K77/61): > 0.008 µg/mL | MIC (P. aeruginosa 1973E): 2 µg/mL | MIC (P. aeruginosa 5700): 2 µg/mL | MIC (P. aeruginosa 765): 8 µg/mL | MIC (P. aeruginosa 8710): 0.063 µg/mL

CCN1CCN(C(=O)N[C@@H](C(=O)N[C@@H]2C(=O)N3C(C(=O)O)=C(COC(=O)c4ccc(O)c(O)c4)CS[C@H]23)c2ccccc2)C(=O)C1=O [Compound D, [6R-[6 alpha,7 beta(R*)]]-7-[[[[(4-ethyl-2,4-dioxo-1-piperazinyl)carbonyl]amino]phenylacetyl]amino]-3-[[(3,4-dihydroxy)benzoyl]oxy]-methyl]-8-oxo-5-thia-1-azabicyclo(4.2.0)oct-2-ene-2-carboxylic acid monosodium salt]
MIC (P. aeruginosa 8710): 0.125 µg/mL

CC(=O)Oc1ccc(C(=O)OCC2=C(C(=O)O)N3C(=O)[C@@H](NC(=O)/C(=N\OCC(N)=O)c4csc(N)n4)[C@H]3SC2)cc1OC(C)=O [Compound B, [6R-[6 alpha,7 beta(Z)]]-3-[[[3,4-bis(acetyloxy)benzoyl]oxy]methyl]-7-[[[2-amino-4-thiazolyl][(2-amino-2-oxoethoxy)imino]acetyl]amino]-8-oxo-5-thia-1-azabicyclo[4.2.0]oct-2-ene-2-carboxylic acid monosodium salt]
MIC (S. aureus ATCC 25923): 2 µg/mL | MIC (S. aureus 1059B): 4 µg/mL | MIC (K. pneumoniae A): 0.125 µg/mL | MIC (E. cloaca P99): 32 µg/mL | MIC (P. aeruginosa 185/H): 2 µg/mL | MIC (P. mirabilis 190): 0.063 µg/mL | MIC (E. cloacae 9570A): 1 µg/mL | MIC (P. aeruginosa Stone 130 [1]): 4 µg/mL | MIC (E. coli 48): 0.031 µg/mL | MIC (P. aeruginosa 130): 4 µg/mL | MIC (S. aureus Smith): 4 µg/mL | MIC (P. aureus Giorgid): 8 µg/mL | MIC (S. marscescens SM): 1 µg/mL

CO/N=C(\C(=O)N[C@@H]1C(=O)N2C(C(=O)O)=C(COC(=O)c3ccc(O)c(O)c3)CS[C@H]12)c1csc(N)n1 [Compound A, [6R-[6 alpha,7 beta(Z)]]-7-[[(2-amino-4-thiazolyl)(methoxyimino)acetyl]amino]-3-[[[(3,4-dihydroxyphenyl)carbonyl]oxy]methyl]-8-oxo-5-thia-1-azabicyclo[4.2.0]oct-2-ene-2-carboxylic acid monosodium salt]
MIC (P. aeruginosa B): 2 µg/mL | MIC (P. aeruginosa 8780): 0.5 µg/mL | MIC (P. aeruginosa 6148B): 2 µg/mL | MIC (P. aeruginosa ATCC 27853): 8 µg/mL | MIC (P. aeruginosa Stone 130 [2]): 2 µg/mL | MIC (P. aeruginosa K77/WT): 1 µg/mL | MIC (P. aeruginosa 503-56): 4 µg/mL | MIC (P. aeruginosa 1973E): 4 µg/mL | MIC (P. aeruginosa 5700): 8 µg/mL | MIC (P. aeruginosa 765): 4 µg/mL | MIC (P. aeruginosa 8710): 2 µg/mL
